Laboratory results: article PMC4946998 (Journal of cellular physiology, 2016)
Read-outs that look alike come from different tables or passages of the source.

How the values were obtained:
[1] = system: inflammatory cytokines and MMPs in the cornea; conditions: naïve WT mice, CAM12 IP QD for 5 days versus PBS; data not shown
[2] = target: MMP-2 (Homo sapiens, UniProt P08253); conditions: read-out: IC50 MMP-2; average of three determinations, SD <10%
[3] = target: MMP-8 (Homo sapiens, UniProt P22894); conditions: read-out: IC50 MMP-8; average of three determinations, SD <10%
[4] = target: MMP-3 (Homo sapiens, UniProt P08254); conditions: read-out: IC50 MMP-3; average of three determinations, SD <10%
[5] = target: MMP-9 (Homo sapiens, UniProt P14780); conditions: read-out: IC50 MMP-9; average of three determinations, SD <10%
[6] = system: IL-1β, IL-6, CXCL1, MMPs -1,-3,-9,-13 mRNA transcripts
[7] = target: MMP-14 cd (Homo sapiens, UniProt P50281); conditions: read-out: IC50 MMP-14; average of three determinations, SD <10%
[8] = target: MMP-1 (Homo sapiens, UniProt P03956); conditions: read-out: IC50 MMP-1; average of three determinations, SD <10%
[9] = system: corneal epithelial defect; conditions: CM; for wound healing: day 5
[10] = system: corneal opacity; conditions: CM
[11] = system: corneal opacity; conditions: WT, CM, 2D post injury; ref Bian et al., 2016; cited from earlier work
[12] = system: MMP-1 immunoreactivity; Gr-1+ cells; conditions: WT mice, CM, topical Dex; not in MMP-8KO mice

Sequence of MMP-8 (P22894 101-467, species assumed): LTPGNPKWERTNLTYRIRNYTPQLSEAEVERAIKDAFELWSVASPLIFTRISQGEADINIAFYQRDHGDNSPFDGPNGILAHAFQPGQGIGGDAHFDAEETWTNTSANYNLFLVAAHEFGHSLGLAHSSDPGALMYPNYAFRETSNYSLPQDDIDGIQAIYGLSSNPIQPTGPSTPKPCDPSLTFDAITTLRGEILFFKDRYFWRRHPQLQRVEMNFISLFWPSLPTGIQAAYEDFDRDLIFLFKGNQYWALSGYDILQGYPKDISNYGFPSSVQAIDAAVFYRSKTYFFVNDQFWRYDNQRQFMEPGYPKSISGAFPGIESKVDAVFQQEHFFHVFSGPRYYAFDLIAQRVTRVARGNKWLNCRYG
Sequence of MMP-2 (P08253 110-660): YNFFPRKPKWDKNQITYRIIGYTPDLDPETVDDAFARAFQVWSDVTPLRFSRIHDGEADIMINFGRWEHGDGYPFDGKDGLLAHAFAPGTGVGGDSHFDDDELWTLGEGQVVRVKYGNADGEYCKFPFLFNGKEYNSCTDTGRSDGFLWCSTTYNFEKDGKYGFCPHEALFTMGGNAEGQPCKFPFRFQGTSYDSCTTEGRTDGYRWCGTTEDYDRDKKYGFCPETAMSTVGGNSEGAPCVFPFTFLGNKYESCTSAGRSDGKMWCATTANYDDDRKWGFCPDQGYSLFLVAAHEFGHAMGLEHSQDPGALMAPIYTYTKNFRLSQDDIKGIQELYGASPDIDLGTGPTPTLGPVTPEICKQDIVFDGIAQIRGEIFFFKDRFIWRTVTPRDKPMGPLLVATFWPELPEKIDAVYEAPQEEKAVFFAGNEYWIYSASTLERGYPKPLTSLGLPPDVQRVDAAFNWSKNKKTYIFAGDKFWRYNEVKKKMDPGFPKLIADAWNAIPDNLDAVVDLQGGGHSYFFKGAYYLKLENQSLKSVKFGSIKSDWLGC
Sequence of MMP-1 (P03956 100-469): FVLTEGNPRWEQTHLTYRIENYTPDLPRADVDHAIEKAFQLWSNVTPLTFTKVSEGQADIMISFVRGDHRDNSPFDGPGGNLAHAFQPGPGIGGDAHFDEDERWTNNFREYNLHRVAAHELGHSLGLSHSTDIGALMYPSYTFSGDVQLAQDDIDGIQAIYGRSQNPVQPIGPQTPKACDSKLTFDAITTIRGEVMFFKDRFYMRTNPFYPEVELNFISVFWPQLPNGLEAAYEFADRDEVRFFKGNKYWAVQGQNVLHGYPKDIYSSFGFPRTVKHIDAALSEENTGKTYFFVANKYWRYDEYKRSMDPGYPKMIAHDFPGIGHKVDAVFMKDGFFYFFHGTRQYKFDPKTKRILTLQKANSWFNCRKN
Sequence of MMP-9 (P14780 107-707 limits assumed): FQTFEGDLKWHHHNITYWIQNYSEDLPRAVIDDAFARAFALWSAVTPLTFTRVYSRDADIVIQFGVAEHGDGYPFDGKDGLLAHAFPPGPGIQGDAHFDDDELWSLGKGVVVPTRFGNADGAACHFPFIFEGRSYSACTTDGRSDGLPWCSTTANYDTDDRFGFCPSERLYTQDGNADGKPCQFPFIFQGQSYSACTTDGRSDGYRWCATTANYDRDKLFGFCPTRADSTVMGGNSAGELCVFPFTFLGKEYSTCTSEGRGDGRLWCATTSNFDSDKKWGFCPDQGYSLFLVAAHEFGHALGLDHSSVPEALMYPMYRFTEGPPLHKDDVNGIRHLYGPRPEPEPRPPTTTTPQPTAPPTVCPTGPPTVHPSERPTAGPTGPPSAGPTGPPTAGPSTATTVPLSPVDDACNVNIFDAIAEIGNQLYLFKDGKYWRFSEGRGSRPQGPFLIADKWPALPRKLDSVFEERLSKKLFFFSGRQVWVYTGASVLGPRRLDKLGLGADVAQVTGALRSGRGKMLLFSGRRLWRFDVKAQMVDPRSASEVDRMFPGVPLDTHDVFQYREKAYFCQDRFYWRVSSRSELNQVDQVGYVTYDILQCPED
Sequence of MMP-3 (P08254 100-477): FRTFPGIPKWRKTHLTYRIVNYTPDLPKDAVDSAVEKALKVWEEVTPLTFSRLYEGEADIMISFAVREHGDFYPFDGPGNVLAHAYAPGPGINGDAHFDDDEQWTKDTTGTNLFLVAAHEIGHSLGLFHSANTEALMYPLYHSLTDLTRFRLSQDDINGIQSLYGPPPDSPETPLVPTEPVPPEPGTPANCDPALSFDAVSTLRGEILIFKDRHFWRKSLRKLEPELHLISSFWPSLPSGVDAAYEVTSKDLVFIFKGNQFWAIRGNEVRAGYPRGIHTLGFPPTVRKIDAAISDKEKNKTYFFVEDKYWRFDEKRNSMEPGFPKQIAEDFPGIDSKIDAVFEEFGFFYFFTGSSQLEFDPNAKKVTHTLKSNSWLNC

## O=C(NO)c1ccccc1S(=O)(=O)c1ccc(-c2ccc(N3CCOCC3)cc2)cc1 [CAM12, N-Hydroxy-2-((4′-morpholino-[1,1′-biphenyl]-4-yl)sulfonyl) benzamide]
[1]
  expression of inflammatory cytokines and MMPs in the cornea: no change in expression of inflammatory cytokines and MMPs
[2]
  IC50: 0.024 µM
[3]
  IC50: 0.057 µM
[4]
  IC50: 12 µM
[5]
  IC50: 2.3 µM
[6]; WT mice, CM 2D and 5D, Dex topical treatment
  MMP-13 mRNA, CAM12 IP versus controls: higher MMP-13 mRNA transcripts
[6]; WT mice, CM 2D and 5D, both Dex and BSS topical treatment
  IL-1β, IL-6, MMP-9 mRNA, CAM12 IP versus controls: higher expression of IL-1β, IL-6, MMP-9
[6]; WT mice, CM 5D, Dex topical treatment
  MMP-1, -3 mRNA, CAM12 IP versus controls: higher levels of MMP-1, -3
[7]
  IC50: 1.14 µM
[8]
  IC50: 16.7 µM
[9]; WT mice, 100 nM CAM12 IP QD
  re-epithelialization, topical Dex + CAM12 IP versus Dex + vehicle IP: delayed re epithelialization
[10]; WT mice, 100 nM CAM12 IP QD
  corneal opacity score, topical Dex + CAM12 IP versus Dex + vehicle IP: higher corneal opacity score

## C[C@@H]1C[C@H]2[C@@H]3CCC4=CC(=O)C=C[C@]4(C)[C@@]3(F)[C@@H](O)C[C@]2(C)[C@@]1(O)C(=O)CO [Dex, Dexamethasone]
[11]
  corneal opacity score, Dex versus BSS: significantly lower opacity scores
[12]
  influx of Gr-1+ cells into the wound site: inhibited the influx
[6]; MMP-8KO mice, CM 2D post injury
  cytokine and MMP transcripts, Dex versus BSS: decreased IL-6, MMP-3, and MMP-9
[6]; MMP-8KO mice, CM 5D post injury
  cytokine and MMP transcripts, Dex versus BSS: decreased MMP-9 and MMP-13
[6]; MMP-8KO mice, CM, topical Dex, in contrast to WT
  IL-1β and CXCL1 expression: lost its ability to decrease IL-1β and CXCL1 expression
[6]; WT mice, CM 2D post injury
  cytokine and MMP transcripts, Dex versus BSS: significantly decreased IL-6, MMPs -3, -9, -13 transcripts
[6]; WT mice, CM 5D
  cytokine and MMP transcripts, Dex versus BSS: significantly decreased IL-6 and MMP-3
[9]; Dex treated MMP-8KO mice
  wound healing: 40%
[9]; Dex treated WT mice
  wound healing: 75%
[10]; 5 days post injury
  corneal opacity score, Dex-treated MMP-8KO versus Dex treated WT: significantly higher corneal opacity scores
[10]; WT mice
  corneal opacity, topical Dex + vehicle IP versus topical BSS + vehicle IP: significantly lower corneal opacity
